The source of these data is article PMC11091526 (International Journal for Parasitology: Drugs and Drug …, 2024).

Some results are limits rather than exact numbers.

The test system of series [1] is N. fowleri (ATCC® 30,808™) trophozoites. Put plainly: Mitochondrial membrane potential depolarization, JC-1. Type of series: cell-based, Naegleria fowleri. Particulars: IC90, 24 h.
The test system is the same in series [2]. The series is classed as cell-based, Naegleria fowleri. As to conditions: trophozoites treated with IC90 for 24 h.
Series [3] shares this test system. Put plainly: Plasma membrane permeability, SYTOX Green. Type of series: cell-based, Naegleria fowleri. As to conditions: IC90, 24 h.
Series [4] concerns N. fowleri ATCC® 30,808™ cysts. Put plainly: microbe, parasite or virus in culture. Particulars: Naegleria fowleri, ATCC30, read-out: N. fowleri ATCC 30,808 IC50, cyst stage. The series is classed as cell-based.
In series [5] the test system is N. fowleri (ATCC® 30,808™) trophozoites. Put plainly: Chromatin condensation, Hoechst 33,342/Propidium Iodide double staining. The series is classed as cell-based, Naegleria fowleri. As to conditions: IC90, 24 h.
The subject of series [6] is N. fowleri ATCC® 30,808™ trophozoites. Put plainly: In vitro activity against trophozoites, alamarBlue, 48 h. Type of series: cell-based, Naegleria fowleri. As to conditions: for S.I. ATCC 30,808 (selectivity index CC50/IC50): CC50 J774A.1 / IC50 ATCC 30,808 trophozoites; for IC50 / IC90: Naegleria fowleri; for IC50: ATCC30, 48 h, read-out: N. fowleri ATCC 30,808 IC50, trophozoite stage; for IC90: ATCC30, read-out: N. fowleri ATCC 30,808 IC90. (The colour change of resazurin is a common sign of viable cells or microbes.)

For series [7], the system named is N. fowleri ATCC® 30,215™ trophozoites. The series is described as above. Type of series: cell-based. As to conditions: Naegleria fowleri, ATCC30, 48 h, read-out: N. fowleri ATCC 30,215 IC50.

As usually defined, the IC50 is the concentration needed to halve the response being measured. By IC90 is commonly meant the point of the concentration-response curve where the effect stands at 90%. For the compound `C[C@@H]1[C@H](O)[C@@H](C)/C=C/C=C/C=C/C=C/C=C/C=C/C=C/[C@H](O[C@@H]2O[C@H](C)[C@@H](O)[C@H](N)[C@@H]2O)C[C@@H]2O[C@](O)(C[C@@H](O)C[C@@H](O)[C@H](O)CC[C@@H](O)C[C@@H](O)CC(=O)O[C@H]1C)C[C@H](O)[C@H]2C(=O)O` [AMPHOTERICIN B, amphotericin B], the “Mitochondrial membrane potential (JC-1 fluorescence)” value in series [1] is reported as “green fluorescence emission was also shown”. The “Inhibition of ATP synthesis in comparison to the negative control” value in series [2] was > 98%. The “Plasma membrane permeability (SYTOX Green fluorescence)” value in series [3] was “emitted green fluorescence”. For the same compound, in series [4], the IC50 came out at 0.53 ± 0.03 µM. Besides, the “Chromatin condensation (Hoechst 33,342 blue fluorescence)” value in series [5] is given as “emission of blue fluorescence was observed”. Besides, in series [6], the “S.I. ATCC 30,808 (selectivity index CC50/IC50)” value is ≥1650, the IC50 came to 0.12 ± 0.03 µM and the IC90 was determined as 0.35 ± 0.02 µM. Also, in series [7], the IC50 is 0.16 ± 0.02 µM.

In the case of `CCCCCCCCCCCCCCCCOP(=O)([O-])OCC[N+](C)(C)C` [MILTEFOSINE, miltefosine], the IC50 in series [4] was 21.5 ± 2.62 µM. Moreover, the “S.I. ATCC 30,808 (selectivity index CC50/IC50)” value in series [6] was determined as 3.3.

`CCCN1CCC=C(c2cc(-c3ccc(C)cc3)no2)C1` [PD-144418]: the IC50 in series [4] worked out at 10.4 ± 2.3 µM; in series [6], 4.71 ± 0.95 µM; in series [7], 6.48 ± 2.83 µM. Moreover, the “S.I. ATCC 30,808 (selectivity index CC50/IC50)” value in series [6] is 10.35. The IC90 in series [6] is 17.4 ± 3.28 µM.

Take `CC(C)N1CCN(c2ccc(OCC3COC(Cn4cncn4)(c4ccc(Cl)cc4Cl)O3)cc2)CC1` (stereo not drawn) [TERCONAZOLE, terconazole]: in series [4], the IC50 was found to be 2.46 ± 0.28 µM. Also, in series [6], the “S.I. ATCC 30,808 (selectivity index CC50/IC50)” value is on record as 22.99, the IC50 turned out to be 3.68 ± 0.61 µM and the IC90 turned out to be 30.9 ± 2.38 µM. Besides, in series [7], the half-maximal inhibitory concentration (IC50) was found to be 0.81 ± 0.49 µM.
